Test results as given in US20130123345A1, “METHOD OF TREATING A VIRAL INFECTION D[…] […] ADENOSINE RECEPTOR PATHWAY” (THE OHIO STATE UNIVERSITY, priority 2010, published 2013).

Columns and labels:
[1] = tested on: influenza-infected mice; assay: Mortality / survival of treated influenza-infected mice; format: in vivo, mouse
Method: (§1) The pharmacologic blockade of CD73 with APCP (5′-(α,β-methylene)diphosphate) reduces BALF adenosine levels and thereby ameliorates acute lung injury in influenza-infected mice. We investigated effects of daily gavage with APCP (20 mg/kg, in 200 μl saline) on body weight, arterial O2 saturation (SpO2; measured in conscious mice with the MouseOx pulse oximetry system) and survival in 2 groups of 10 individually-marked influenza-infected mice, and compared these animals to mock-infected and untreated influenza-infected mice. […] (FIG. 4C). In fact, 20% of APCP-treated mice survived infection, whereas all untreated mice died. Importantly, APCP gavage had no effect on lung homogenate virus titers at 2 d.p.i. (not shown).
(§2) A1-AdoR activation is pro-inflammatory in influenza infection and pharmacologic blockade of A1-AdoR with the prototypical A1-AdoR antagonist DPCPX (8-Cyclopentyl-1,3-diproopylxanthine) ameliorates adenosine-induced acute lung injury in influenza-infected mice. Influenza-infected mice were treated with DPCPX (1 mg/kg/day), administered by implanted osmotic minipump (Alzet). The effects of this A1-AdoR antagonist on body weight, arterial O2 saturation (measured by pulse oximetry) and survival were investigated in 2 groups of 10 individually-marked influenza-infected mice. For some outcome measures, we also evaluated the effect of daily administration of the A2b-AdoR antagonist enprofylline (4 mg/kg I.P., in 100 μl 10% ethanol in saline; EMD Biosciences), to determine whether A2b-AdoR blockade also modulates influenza outcomes. […] 10% of DPCPX-treated mice survived infection. […] (not shown). […] (not shown).
(§3) Mice were infected intranasally with 50 μl influenza A/WSN/33 under 3% isoflurane anesthesia. Mock-infected animals received 50 μl of virus diluent (PBS with 0.1% BSA). In some experiments, mice were individually marked and weighed daily.

[2] = tested on: influenza-infected mice; assay: Influenza-induced loss of body weight in treated infected mice; format: in vivo, mouse
Method: as §1, §2, §3

[3] = tested on: influenza-infected mice; assay: Arterial O2 saturation (SpO2) by MouseOx pulse oximetry, peripheral hypoxemia; format: in vivo, mouse
Method: as §1, with “Importantly, APCP gavage had no effect on lung homogenate virus titers at 2 d.p.i. (not shown).” left out
A1-AdoR activation is pro-inflammatory in influenza infection and pharmacologic blockade of A1-AdoR with the prototypical A1-AdoR antagonist DPCPX (8-Cyclopentyl-1,3-diproopylxanthine) ameliorates adenosine-induced acute lung injury in influenza-infected mice. […] The effects of this A1-AdoR antagonist on body weight, arterial O2 saturation (measured by pulse oximetry) and survival were investigated in 2 groups of 10 individually-marked influenza-infected mice. For some outcome measures, we also evaluated the effect of daily administration of the A2b-AdoR antagonist enprofylline (4 mg/kg I.P., in 100 μl 10% ethanol in saline; EMD Biosciences), to determine whether A2b-AdoR blockade also modulates influenza outcomes. […]

[4] = tested on: influenza A/WSN/33; assay: Lung homogenate virus titers; format: in vivo, mouse
Method: as §1, §2

[5] = tested on: influenza-infected mice; assay: Lung water content (wet:dry weight ratio); format: in vivo, mouse; settings: 6 d.p.i.
Method: as §2
The right lung was removed weighed, dried in an oven at 55° C. for 5 days, then reweighed. Wet-to-dry weight ratio provides an index of intrapulmonary fluid accumulation.

[6] = tested on: influenza-infected mice; assay: Total BAL cell counts (pulmonary inflammation); format: in vivo, mouse; settings: 6 d.p.i.; 1 mg/kg/day by osmotic minipump
Method: as §2
Following removal of the left lung, the right lung was lavaged in situ with 0.5 ml of sterile saline. […] Numbers of viable alveolar macrophages, lymphocytes, and polymorphonuclear cells were calculated from total leukocytes (counted using a hemocytometer with 0.4% trypan blue exclusion to assess viability) and differential counts of Diff-Quik-stained cytocentrifuge preparations. […] BAL protein and LDH content were determined by standard colorimetric assays.

[7] = tested on: BALB/c mice infected with influenza A/WSN/33; assay: Heart rate (bradycardia) by pulse oximetry in influenza-infected mice; format: in vivo; settings: 6 days infection, 10,000 PFU/mouse; systemic treatment
[8] = tested on: influenza H1N1 virus (A/WSN/33) infected BALB/c mice; assay: Alveolar fluid clearance in influenza-infected mice (compound added to fluid clearance instillate); format: in vivo, mouse; settings: 2 d.p.i., 10 μM in fluid clearance instillate, 30-min ventilation period
[9] = 1 mg/kg/day by implanted osmotic minipump

5′-(α,β-methylene)diphosphate [APCP]
treated mice that survived infection ([1]; daily gavage 20 mg/kg, all untreated mice died): 20% | mortality (delay) ([1]; daily gavage 20 mg/kg, vs untreated infected mice): significantly delayed mortality | influenza-induced loss of body weight ([2]; daily gavage 20 mg/kg in 200 μl saline): no significant effect | onset of peripheral hypoxemia (SpO2) ([3]; daily gavage 20 mg/kg, conscious mice): significantly delayed | lung homogenate virus titers ([4]; 2 d.p.i., daily gavage 20 mg/kg): no effect

CCCn1c(=O)c2[nH]c(C3CCCC3)nc2n(CCC)c1=O [DPCPX, 8-cyclopentyl-1,3-dipropylxanthine]
mortality (delay) [1, 9]: significantly delayed mortality | treated mice that survived infection [1, 9]: 10% | lung water content (wet:dry weight ratio) ([5]; 1 mg/kg/day by osmotic minipump): significantly reduced | influenza-induced weight loss [2, 9]: neither DPCPX nor enprofylline had any significant effect | onset of peripheral hypoxemia [3, 9]: significantly delayed | lung homogenate virus titers ([4]; 6 d.p.i., 1 mg/kg/day by osmotic minipump): Neither DPCPX nor enprofylline had any effect | total BAL cell counts [6]: significant reduction | influenza-induced bradycardia (heart rate) [7]: reversed

N#CC(=C(N)Sc1ccccc1N)C(C#N)=C(N)Sc1ccccc1N [U0126, 1,4-diamino-2,3-dicyano-1,4-bis[2-aminophenylthio] butadiene]
WSN virus-induced suppression of alveolar fluid clearance [8]: reversed

CCCn1c(=O)[nH]c(=O)c2[nH]cnc21 [enprofylline]
lung water content (wet:dry weight ratio) ([5]; daily 4 mg/kg I.P.): no such effect | influenza-induced weight loss ([2]; daily 4 mg/kg I.P. in 100 μl 10% ethanol in saline): neither DPCPX nor enprofylline had any significant effect | lung homogenate virus titers ([4]; 6 d.p.i., daily 4 mg/kg I.P.): Neither DPCPX nor enprofylline had any effect

CNCCC(Oc1ccc(C(F)(F)F)cc1)c1ccccc1 (stereo not drawn) [fluoxetine]
WSN virus-induced suppression of alveolar fluid clearance [8]: reversed
